Assay: Sustained release study (fluorescence intensity vs. time)
Assay type: physicochemical
Protocol: Step 3: Sustained Release Study
FIGS. 6a and 6b show the sustained release of chloramphenicol (at 1 and 4 molar concentrations, respectively) from the liposomes described above as a function of fluorescence intensity vs. time at a release rate of about 0.65 mg/day.

Compound | release rate (sustained release from liposomes, 1 and 4 molar concentrations (FIGS. 6a, 6b)) | release rate (sustained release from reverse micelles (FIG. 6c))
O=C(N[C@H](CO)[C@H](O)c1ccc([N+](=O)[O-])cc1)C(Cl)Cl [chloramphenicol] | about 0.65 mg/day | –
vitamin E | – | about 113 mg/day

— patent US20130004651A1, “SUSTAINED DRUG RELEASE FROM BODY IMPLANTS USING NANOPARTICLE-EMBEDDED POLYMERIC COATING MATERIALS” (priority 2011, published 2013)
